Test [1] deals with SK-Hep cells. Put plainly: Na+-dependent glutamine transport assay in SK-Hep cells and transfected clones. It counts as cell-based, human. The note with it: SK-Hep parent cells. Here is the method: FIG. 10. Effect of induced ATB0/ASCT2 antisense RNA expression on Na^+-dependent glutamine uptake. Cultures of the SK-Hep parent cell line and SK-Hep cells stably transfected with a 1.3 kb ATB^0 construct in the sense orientation (Sense 2-1) or antisense orientation (Antisense 1-1) were treated with inducer (MFP, 10 nM) or vehicle (ethanol, 0.1%) at time zero. At the indicated times thereafter, the initial rate (30 s) Na^+-dependent transport velocity of 50 μM L-glutamine was measured by radiotracer analysis as described in the methods section. The results represent the average±SD of four separate determinations. *p<0.050 versus control. **p<0.010 versus control.
Glutamine Transport Assays. Measurement of initial-rate Na^+-dependent glutamine uptake was performed by radiotracer analysis using the cluster tray method described in detail previously (57). Initial rate transport velocities are expressed as the average±SD of at least four separate determinations. The transport data was analyzed for significant differences using a t-test with a p<0.050 considered significant.
Inpact of antisense ATB^0/ASCT2 RNA on glutamine transport rates. In order to determine the functional effect of targeting ATB^0/ASCT2 mRNA, glutamine transport rates were measured.

The subject of test [2] is SK-Hep cells. The experiment in a line: Cellular quantification (hemacytometer cell number, viability). Format: cell-based, human. To be noted: treatment with MFP. Here is the method:
FIG. 11. Effect of induced antisense RNA expression and glutamine deprivation on cellular proliferation and viability. Cultures of SK-Hep cells stably transfected with a 1.3 kb ATB^0 construct in the antisense orientation (Antisense 1-1) were treated at time zero with either inducer (FP, 10 nM), vehicle (ethanol, 0.1%) or maintained in the presence (+GLN) or absence (−GLN) of glutamine (DMEM+10% dialyzed FBS±2 mM L-GLN). At the indicated times thereafter, cell number was calculated after trypsmization and subsequent counting on a hemacytometer. The results represent the average±SD of five separate determinations. **p<0.010 versus-MFP. ††p<0.010 versus+GLN. […]
Cellular Quantification. Initial screens of the stably transfected sense and antisense ATB^0/ASCT2 clones to MFP induction utilized the colorimetric MTT (3-[4,5-Dimethylthiazol-2-yl]-2,5-diphenyltetrazolium bromide (Sigma)) assay as previously described (57), using a spectrophotometric plate reader at a wavelength of 562 nm (Bio-Tek EL311SX, Winooski, Vt.). The absorbance is considered to be directly proportional to the number of metabolically active mitochondria, and by extension, the number of cells. In subsequent studies, cell number was quantified directly. At specific times after experimental treatment (±MFP or ±glutamine), cells were removed from the culture dish via trypsinization and quantified on a hemacytometer. […]

Test [3] relates to Hep3B, PLC/PRF/5, Focus and THLE-5B cell lines. Put plainly: Amino acid inhibition analysis of Na+-dependent glutamine transport. It counts as cell-based, human. The note with it: for inhibition at 5000 µM: Homo sapiens, unlabeled amino acid at 5 mM, 50 μM L-glutamine, Hep3B, PLC/PRF/5, Focus, THLE-5B, read-out: inhibition of glutamine uptake. Here is the method: (§1) FIG. 1. Amino acid inhibition analysis of glutamine transport in the Hep3B, PLC/PRF/5 and Focus human hepatoma cell lines and the THLE-5B SV40-immortalized human liver epithelial cell line. The Na^+-dependent transport of 50 μM L-glutamine was measured as described in the Methods section in the absence or presence of the indicated unlabeled amino acids at 5 mM. Testing of cysteine (CYSH) required the presence of 5 mM dithiothreitol (DTT) as a reducing agent, so DTT was tested alone as well. Arrows indicate the relative transport rates for 50 μM L-glutamine in primary human adult (solid arrow) and fetal (open arrow) hepatocytes. The results represent the average±SD of four separate determinations (*p<0.010 versus control). The Eadie-Hofstee plots of the kinetic analyses are shown as an inset in each figure, with the dashed lines representing the resolved high and low affinity components of the composite data (solid line). The derived values of the kinetic constants for each component are given in the Results section.
Glutamine Transport Assays. Measurement of initial-rate glutamine uptake was carried out via the cluster-tray method originally described by Gazzola (21) as reported previously (6, 9). Briefly, after trypsinization hepatoma cells were plated at a density of 1×10^5 cells/well in 24-well culture plates (Costar Corp., Cambridge, Mass.) and allowed to grow to >80% confluence, typically one to two days later. For initial-rate measurements, the radiotracer utilized was L-[G-^3H] glutamine (Amersham Corp., Arlington Heights, Ill.) at 4 μCi/ml, in the presence of unlabeled L-glutamine at 50 μM. For kinetic studies, the amount of unlabeled glutamine in the transport buffer varied from 10 μM to 10 mM. All transport measurements were carried out at 37° C. and were terminated after 30 s by three rapid washes with an ice-cold phosphate-buffered saline solution. Intracellular radiolabeled glutamine was extracted with 0.2 ml/well of 0.2% sodium dodecyl sulfate (SDS) and 0.2 N NaOH; after 1 h, 0.1 ml of the lysate was neutralized with 10 μl of 2 N HCl and subjected to scintillation spectrophotometry in a Packard TopCount™ (Packard Instruments, Meriden, Conn.). The remaining lysate was utilized for the determination of cellular protein by the bicinchoninic acid (BCA) method (Pierce Chemical Co., Rockford, Ill.). Rates of glutamine transport were calculated from the cpm per sample, the specific activity of the uptake mix (in cpm/nmol) and normalized to cellular protein content in a Microsoft Excel® spreadsheet program. Transport values obtained in the absence of extracellular Na^+ (diffusion and Na^+-independent uptake) were subtracted from those in the presence of Na^+ (total uptake) to yield Na^+-dependent rates which are reported in units of nmol•mg^−1 protein•30 s^−1. […]

The next test concerns THLE-5B. Put plainly: Glutamine transport assay (inhibition and kinetic analysis). The note with it: 5 mM, 50 μM L-glutamine, p<0.050. It counts as cell-based, human. How it is done: as §1
(§2) Glutamine Transport Assays. Measurement of initial-rate glutamine uptake was carried out via the cluster-tray method originally described by Gazzola (21) as reported previously (6, 9). Briefly, after trypsinization hepatoma cells were plated at a density of 1×10^5 cells/well in 24-well culture plates (Costar Corp., Cambridge, Mass.) and allowed to grow to >80% confluence, typically one to two days later. For initial-rate measurements, the radiotracer utilized was L-[G-^3H] glutamine (Amersham Corp., Arlington Heights, Ill.) at 4 μCi/ml, in the presence of unlabeled L-glutamine at 50 μM. For kinetic studies, the amount of unlabeled glutamine in the transport buffer varied from 10 μM to 10 mM. All transport measurements were carried out at 37° C. and were terminated after 30 s by three rapid washes with an ice-cold phosphate-buffered saline solution. Intracellular radiolabeled glutamine was extracted with 0.2 ml/well of 0.2% sodium dodecyl sulfate (SDS) and 0.2 N NaOH; after 1 h, 0.1 ml of the lysate was neutralized with 10 μl of 2 N HCl and subjected to scintillation spectrophotometry in a Packard TopCount™ (Packard Instruments, Meriden, Conn.). The remaining lysate was utilized for the determination of cellular protein by the bicinchoninic acid (BCA) method (Pierce Chemical Co., Rockford, Ill.). Rates of glutamine transport were calculated from the cpm per sample, the specific activity of the uptake mix (in cpm/nmol) and normalized to cellular protein content in a Microsoft Excel® spreadsheet program. Transport values obtained in the absence of extracellular Na^+ (diffusion and Na^+-independent uptake) were subtracted from those in the presence of Na^+ (total uptake) to yield Na^+-dependent rates which are reported in units of nmol•mg^−1 protein•30 s^−1. All transport values depicted are the average±standard deviation of four separate determinations. Kinetic analysis of Eadie-Hofstee linearized transport data (v vs. v/[L-GLN]) was performed by regression analysis (Cricket Graph®, Computer Associates, Islandia, N.Y.). Nonlinear regression analysis was performed with DataDesk (Data Description, Inc. Ithaca, N.Y.) and Excel for two component Michaelis-Menten kinetics: v=((Vmax1×[S])/(Km1+[S])+(Vmax2×[S])/(Km2+[S])).
It should be noted that extensive depletion of intracellular amino acid pools were not performed prior to transport measurements in these studies because we sought to assess glutamine uptake under more physiological conditions. […]

Test [4] has as its system human fetal liver fibroblasts (HFLF). The test is described as above. It counts as cell-based. To be noted: 5 mM, 50 μM L-glutamine. Here is the method:
FIG. 5. Functional and molecular assessment of ATB^0 expression in human fetal liver fibroblasts (HFLF) and cirrhotic liver tissue. A) Amino acid inhibition analysis of Na^+-dependent glutamine uptake in human fetal liver fibroblasts. Fibroblasts were isolated and cultured as described in the Methods section, and amino acid inhibition analysis of 50 μM L-glutamine uptake was carried out as described in FIG. 1. *p<0.010 vs. control. The Eadie-Hofstee plot of the kinetic analysis is shown as an inset, with the dashed lines representing the resolved high and low affinity components of the composite data (solid line). The derived values of the kinetic constants for each component are given in the Results section. B) Northern blot analysis of ATB^0 expression in HFLF. Radiolabeled cDNA probes were generated with the Megaprime™ kit as described in the Methods section, and hybridized to 20 μg of total RNA from HFLF. Exposure time was 24 h. C) RT-PCR and restriction enzyme analysis of ATB^0 expression in HFLF, normal and cirrhotic liver. The analysis was carried out exactly as described in FIG. 3. Omission of RT is shown for the normal liver sample. D) Expression of ATB^0 in biopsies from a patient with liver cirrhosis and hepatocellular carcinoma (HCC). Northern blot analysis of ATB^0 & SN1 expression were performed on RNA extracted from the snap-frozen biopsies. RNA isolation and northern blot analysis was carried out as described in the Methods section, with full-length riboprobes used for detection of transporter mRNA. Exposure times for the blots are shown to illustrate relative expression levels for ATB^0 in each of the samples.
as §2, with “v=((Vmax1×[S])/(Km1+[S])+(Vmax2×[S])/(Km2+[S])). […]” for “v=((Vmax1×[S])/(Km1+[S])+(Vmax2×[S])/(Km2+[S])).”

In test [5] the test system is SK-Hep cells. The experiment in a line: Poly IC treatment of SK-Hep cells (growth, viability, apoptosis). Format: cell-based, human. How it is done:
Possible role of a PKR response in hepatoma apoptosis. Given the marked effect of induced ATB^0/ASCT2 antisense RNA expression on hepatoma viability and apoptosis, the possibility that the transporter knockdown response was a nonspecific double stranded RNA-dependent protein kinase (PKR) (62) mediated event was considered. To this end, cells were treated with Polyriboinosinic-polyribocytidylic acid (poly IC)—a mimic of double stranded RNA and stimulator of PKR in mammalian cells.
The mechanism leading from ATB^0/ASCT2 inhibition to apoptosis is unclear, but is currently being investigated. As we ruled out a nonspecific double stranded RNA (PKR) response (FIG. 14), we hypothesize that another cellular stress pathway links transporter suppression to apoptosis. Specifically, oxidative stress may be involved due to the likely loss of the antioxidant glutathione after diminution of its precursor glutamine (65, 66). PKR phosphorylates the α chain of the eukaryotic translation initiation factor eIF2 inhibiting the guanine nucleotide exchange factor eIF2B and turning off protein synthesis. In this respect, the selective expression of ATB^0/ASCT2 in cancerous versus normal human liver cells remains important since tumor-specific activation of PKR has recently been used to inhibit glioma growth in vivo [68]. […]

The values that follow come from patent US20060280725A1, “Compositions and methods of treating and diagnosing hepatoma” (priority 2003, published 2006).

Some results are limits rather than exact numbers.

Usually inhibition stands for how much of the control response was suppressed.

As for `CC#C[C@]1(O)CC[C@H]2[C@@H]3CCC4=CC(=O)CCC4=C3[C@@H](c3ccc(N(C)C)cc3)C[C@@]21C` [MFP, mifepristone], the “decrease in glutamine transport rates” value is listed as 23% with SK-Hep cells [1] (14 h MFP 10 nM, p<0.050, not reproduced in subsequent studies) and “not observed” in the test with SK-Hep cells [1] (24 h MFP). The “growth of the SK-Hep parent cell line” value with SK-Hep cells [2] is “unaffected”.
In the case of `CNC(C)(C)C(=O)O` [MeAIB, alpha-(methylamino)isobutyric acid, reference compound], the “inhibition of glutamine uptake” value in test [3] (5 mM, all cell lines except THLE-5B) was “failed to significantly inhibit glutamine uptake”. In the test on THLE-5B, the diminished glutamine uptake stood at 29%. Moreover, the “inhibition of Na+-dependent glutamine uptake” value in test [4] is “not”.
For `C[C@H](N)C(=O)O` [alanine, reference compound], the inhibition at 5000 µM in test [3] was greater than 80%. Further, the “inhibition of Na+-dependent glutamine uptake” value in test [4] is given as “marked inhibition”.
Turning to `N[C@@H](CS)C(=O)O` [cysteine, reference compound], the inhibition at 5000 µM in test [3] was greater than 80%. The “inhibition of Na+-dependent glutamine uptake” value in test [4] is given as “marked inhibition”.
Taken in the same sequence, the figures for `N[C@@H](CO)C(=O)O` [serine, reference compound] were greater than 80% and “marked inhibition”.
On to “Polyriboinosinic-polyribocytidylic acid [poly IC]”, for which, in the test with SK-Hep cells [5], the “apoptotic response in SK-Hep cells” value was “failed to elicit the apoptotic response” and the “growth or viability of SK-Hep cells” value is given as “failed to impact growth or viability”.
